Molecular target: T1, human TRPC6 (Homo sapiens, UniProt Q9Y210)
T1 construct: expressed in transfected cells
T1 sequence (Q9Y210 1-931): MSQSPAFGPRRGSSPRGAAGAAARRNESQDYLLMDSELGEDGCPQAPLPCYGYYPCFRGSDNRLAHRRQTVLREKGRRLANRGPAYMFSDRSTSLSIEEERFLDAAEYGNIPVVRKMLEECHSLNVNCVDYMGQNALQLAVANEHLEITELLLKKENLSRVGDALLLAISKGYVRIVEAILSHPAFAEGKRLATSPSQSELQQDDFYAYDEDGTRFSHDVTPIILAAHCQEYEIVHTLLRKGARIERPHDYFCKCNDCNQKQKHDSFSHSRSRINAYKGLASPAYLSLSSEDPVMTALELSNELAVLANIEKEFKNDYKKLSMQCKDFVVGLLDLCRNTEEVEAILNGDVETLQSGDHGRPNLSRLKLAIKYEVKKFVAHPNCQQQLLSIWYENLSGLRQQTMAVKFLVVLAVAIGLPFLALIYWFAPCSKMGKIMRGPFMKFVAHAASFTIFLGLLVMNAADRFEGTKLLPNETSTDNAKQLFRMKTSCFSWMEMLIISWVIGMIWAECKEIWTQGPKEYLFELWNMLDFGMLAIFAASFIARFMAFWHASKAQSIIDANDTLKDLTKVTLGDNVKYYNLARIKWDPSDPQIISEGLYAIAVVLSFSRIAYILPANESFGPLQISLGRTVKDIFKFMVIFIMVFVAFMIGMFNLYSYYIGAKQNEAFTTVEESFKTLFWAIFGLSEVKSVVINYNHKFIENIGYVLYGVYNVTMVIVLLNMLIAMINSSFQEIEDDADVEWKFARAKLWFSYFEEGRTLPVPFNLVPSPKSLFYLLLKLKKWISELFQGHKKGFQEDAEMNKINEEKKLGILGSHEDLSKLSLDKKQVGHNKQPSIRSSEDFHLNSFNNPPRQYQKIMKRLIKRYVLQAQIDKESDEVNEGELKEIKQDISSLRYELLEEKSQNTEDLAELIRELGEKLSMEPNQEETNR
Test: TRPC6 calcium flux assay (FLIPR, OAG-stimulated calcium influx)
Format: cell-based
Conditions: HEK293 cells stably transfected with human TRPC6, read-out: hTRPC6 Potency
Summary of the method: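 IC50 derived by plotting background-corrected peak fluorescence (180 s window, normalized to OAG-triggered signal vs buffer) against dose. Stable human TRPC6 HEK293 line was dye-loaded, exposed to compound 25 min, then challenged with 50 uM final OAG in 2 mM Ca2+ HEPES buffer pH 7.2, 0.5% DMSO.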

Row | Compound | IC50 [nM]
1 | N[C@@H]1CN(c2nc3ccc(F)cc3n2CC(=O)N[C@@H]2CCOC2)CC[C@H]1F [Example 676, 2-(2-((3R,4R)-3-amino-4-fluoropiperidin-1-yl)-6-fluoro-1H-benzo[d]imidazol-1-yl)-N-((R)-tetrahydrofuran-3-yl)acetamide] | > 3750
2 | CC1COCC(C)N1C(=O)Cn1c(N2CC[C@@H](F)[C@H](N)C2)nc2ccc(F)cc21 (stereo partly drawn) [Example 683, 2-(2-((3R,4R)-3-amino-4-fluoropiperidin-1-yl)-6-fluoro-1H-benzo[d]imidazol-1-yl)-1-(3,5-dimethylmorpholino)ethan-1-one] | 290
3 | CCC1COCCN1C(=O)Cn1c(N2CC[C@@H](F)[C@H](N)C2)nc2ccc(F)cc21 (stereo partly drawn) [Example 684, 2-(2-((3R,4R)-3-amino-4-fluoropiperidin-1-yl)-6-fluoro-1H-benzo[d]imidazol-1-yl)-1-(3-ethylmorpholino)ethan-1-one] | 524
4 | N[C@@H]1CN(c2nc3ccc(F)cc3n2CC(=O)N2CCOC[C@@H]2C2CC2)CC[C@H]1F [Example 685, 2-(2-((3R,4R)-3-amino-4-fluoropiperidin-1-yl)-6-fluoro-1H-benzo[d]imidazol-1-yl)-1-((S)-3-cyclopropylmorpholino)ethan-1-one] | 1160
5 | N[C@@H]1CN(c2nc3ccc(F)cc3n2CC(=O)N2CCOC[C@H]2CO)CC[C@H]1F [Example 686, 2-(2-((3R,4R)-3-amino-4-fluoropiperidin-1-yl)-6-fluoro-1H-benzo[d]imidazol-1-yl)-1-((R)-3-(hydroxymethyl)morpholino) ethan-1-one] | 1570
6 | CC1(C)COCCN1C(=O)Cn1c(N2CC[C@@H](F)[C@H](N)C2)nc2ccc(F)cc21 [Example 687, 2-(2-((3R,4R)-3-amino-4-fluoropiperidin-1-yl)-6-fluoro-1H-benzo[d]imidazol-1-yl)-1-(3,3-dimethylmorpholino)ethan-1-one] | 2080
7 | (3R,4R)-4-fluoro-1-(6- fluoro-1-((4- methoxypyridin-2- yl)methyl)-1H- benzo[d]imidazol-2- yl)piperidin-3-amine [Example 517] | 319

The next compounds have a lower IC50 than those just listed; values first:

Row | IC50 [nM] | Compound
8 | 88.1 | CC1CCN1C(=O)Cn1c(N2CC[C@@H](F)[C@H](N)C2)nc2ccc(F)cc21 (stereo partly drawn) [Example 677, 2-(2-((3R,4R)-3-amino-4-fluoropiperidin-1-yl)-6-fluoro-1H-benzo[d]imidazol-1-yl)-1-(2-methylazetidin-1-yl)ethan-1-one]
9 | 98.3 | C[C@H]1COCCN1C(=O)Cn1c(N2CC[C@@H](F)[C@H](N)C2)nc2ccc(F)cc21 [Example 678, 2-(2-((3R,4R)-3-amino-4-fluoropiperidin-1-yl)-6-fluoro-1H-benzo[d]imidazol-1-yl)-1-((S)-3-methylmorpholino)ethan-1-one]
10 | 153 | COC[C@@H]1COCCN1C(=O)Cn1c(N2CC[C@@H](F)[C@H](N)C2)nc2ccc(F)cc21 [Example 680, 2-(2-((3R,4R)-3-amino-4-fluoropiperidin-1-yl)-6-fluoro-1H-benzo[d]imidazol-1-yl)-1-((R)-3-(methoxymethyl)morpholino) ethan-1-one]
11 | 168 | C[C@@H]1COCCN1C(=O)Cn1c(N2CC[C@@H](F)[C@H](N)C2)nc2ccc(F)cc21 [Example 681, 2-(2-((3R,4R)-3-amino-4-fluoropiperidin-1-yl)-6-fluoro-1H-benzo[d]imidazol-1-yl)-1-((R)-3-methylmorpholino)ethan-1-one]
12 | 259 | C[C@H]1CCCN1C(=O)Cn1c(N2CC[C@@H](F)[C@H](N)C2)nc2ccc(F)cc21 [Example 682, 2-(2-((3R,4R)-3-amino-4-fluoropiperidin-1-yl)-6-fluoro-1H-benzo[d]imidazol-1-yl)-1-((S)-2-methylpyrrolidin-1-yl)ethan-1-one]

From patent US11332459B2 (TEIJIN PHARMA LIMITED, priority 2017, dated 2022)
